Assay results published in ChEMBL document CHEMBL1201862, “PubChem BioAssay data set” (2004).
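1) Cells in 96-well plates. 2) Compound, 48 h, 5 concentrations. 3) Linear interpolation between surrounding doses. 4) Unreached endpoint = highest concentration. Here, GI50 denotes the concentration required for 50% inhibition of growth.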 Activity calls are given as the source filed them. Cut-off read from the data, not from the text of the source: active = GI50 up to about 1.1 µM and inactive = higher.

Legend:
Experiment in all cases: NCI anticancer screen, dose series, 48 h
TK-10 = system: TK-10
RPMI-8226 = system: RPMI-8226
SF-295 = system: SF-295
U-251 = system: U-251
OVCAR-5 = system: OVCAR-5
SF-539 = system: SF-539
A549 = system: A549
SK-OV-3 = system: SK-OV-3
CAKI-1 = system: CAKI-1
HCC 2998 = system: HCC 2998
SK-MEL-5 = system: SK-MEL-5
HL-60 = system: HL-60
786-0 = system: 786-0
HOP-62 = system: HOP-62
SNB-19 = system: SNB-19
ACHN = system: ACHN
OVCAR-8 = system: OVCAR-8
IGROV-1 = system: IGROV-1
KM12 = system: KM12
EKVX = system: EKVX

## CC12C/C(=C\c3ccccc3)C(=O)C3C1CCCC32
TK-10
  GI50: > 100 µM (inactive)
RPMI-8226
  GI50: 34.2 µM (inactive)
SF-295
  GI50: > 100 µM (inactive)
U-251
  GI50: 61.4 µM (inactive)
OVCAR-5
  GI50: > 100 µM (inactive)
SF-539
  GI50: > 100 µM (inactive)
A549
  GI50: > 100 µM (inactive)
SK-OV-3
  GI50: > 100 µM (inactive)
CAKI-1
  GI50: > 100 µM (inactive)
HCC 2998
  GI50: 44.5 µM (inactive)
SK-MEL-5
  GI50: 46 µM (inactive)
HL-60
  GI50: 21.5 µM (inactive)
786-0
  GI50: 95.9 µM (inactive)
HOP-62
  GI50: > 100 µM (inactive)
SNB-19
  GI50: > 100 µM (inactive)
ACHN
  GI50: > 100 µM (inactive)
OVCAR-8
  GI50: > 100 µM (inactive)
IGROV-1
  GI50: > 100 µM (inactive)
KM12
  GI50: 55.1 µM (inactive)

## C1OCN2c3nonc3N3COCN4c5nonc5N1C2C43 (configuration not stated)
TK-10
  GI50: > 100 µM (inactive)
RPMI-8226
  GI50: > 100 µM (inactive)
SF-295
  GI50: > 100 µM (inactive)
U-251
  GI50: > 100 µM (inactive)
OVCAR-5
  GI50: > 100 µM (inactive)
SF-539
  GI50: > 100 µM (inactive)
A549
  GI50: > 100 µM (inactive)
SK-OV-3
  GI50: > 100 µM (inactive)
CAKI-1
  GI50: > 100 µM (inactive)
HCC 2998
  GI50: 68.4 µM (inactive)
SK-MEL-5
  GI50: > 100 µM (inactive)
HL-60
  GI50: 83.4 µM (inactive)
786-0
  GI50: > 100 µM (inactive)
SNB-19
  GI50: > 100 µM (inactive)
ACHN
  GI50: > 100 µM (inactive)
EKVX
  GI50: > 100 µM (inactive)
OVCAR-8
  GI50: > 100 µM (inactive)
IGROV-1
  GI50: > 100 µM (inactive)
KM12
  GI50: 49.2 µM (inactive)

## O=[N+]([O-])c1ccc(N/N=C(\c2ccccc2)c2ccccn2)nc1
RPMI-8226
  GI50: 0.59 µM (active)
SF-295
  GI50: 5.32 µM (inactive)
U-251
  GI50: 1.26 µM (inactive)
OVCAR-5
  GI50: 14.4 µM (inactive)
SF-539
  GI50: 1.52 µM (inactive)
A549
  GI50: 4.48 µM (inactive)
SK-OV-3
  GI50: 4.86 µM (inactive)
CAKI-1
  GI50: 0.497 µM (active)
HCC 2998
  GI50: 5.46 µM (inactive)
SK-MEL-5
  GI50: 1.85 µM (inactive)
HL-60
  GI50: < 0.01 µM (active)
786-0
  GI50: 0.906 µM (active)
HOP-62
  GI50: 8.57 µM (inactive)
SNB-19
  GI50: 9.48 µM (inactive)
ACHN
  GI50: 0.0785 µM (active)
EKVX
  GI50: 0.171 µM (active)
OVCAR-8
  GI50: 0.914 µM (active)
IGROV-1
  GI50: 1.11 µM (active)
KM12
  GI50: 6.62 µM (inactive)

## CC(=O)OC1c2ccccc2CCCCCCC12OCCO2 (configuration not stated)
TK-10
  GI50: > 100 µM (inactive)
RPMI-8226
  GI50: 48.3 µM (inactive)
SF-295
  GI50: > 100 µM (inactive)
U-251
  GI50: > 100 µM (inactive)
OVCAR-5
  GI50: > 100 µM (inactive)
SF-539
  GI50: > 100 µM (inactive)
A549
  GI50: > 100 µM (inactive)
SK-OV-3
  GI50: > 100 µM (inactive)
CAKI-1
  GI50: 51.9 µM (inactive)
HCC 2998
  GI50: > 100 µM (inactive)
SK-MEL-5
  GI50: 55.5 µM (inactive)
HL-60
  GI50: 44.3 µM (inactive)
786-0
  GI50: > 100 µM (inactive)
HOP-62
  GI50: > 100 µM (inactive)
SNB-19
  GI50: > 100 µM (inactive)
ACHN
  GI50: > 100 µM (inactive)
OVCAR-8
  GI50: > 100 µM (inactive)
IGROV-1
  GI50: > 100 µM (inactive)
KM12
  GI50: > 100 µM (inactive)

## COc1c(C)c(OC)c2c(c1O)[C@@H]1[C@@H]3Cc4c(OC)c(C)c(OC)c(O)c4[C@H](CNC(=O)c4ccc5ccccc5n4)N3[C@@H](C#N)[C@H](C2)N1C
TK-10
  GI50: 0.000444 µM (active)
RPMI-8226
  GI50: 0.000324 µM (active)
SF-295
  GI50: 0.0018 µM (active)
U-251
  GI50: 0.000632 µM (active)
OVCAR-5
  GI50: 0.000726 µM (active)
SF-539
  GI50: 0.0017 µM (active)
A549
  GI50: 0.00263 µM (active)
CAKI-1
  GI50: 0.00401 µM (active)
HCC 2998
  GI50: 0.00014 µM (active)
SK-MEL-5
  GI50: 0.000495 µM (active)
HL-60
  GI50: 0.000363 µM (active)
786-0
  GI50: 0.000494 µM (active)
HOP-62
  GI50: 0.00112 µM (active)
SNB-19
  GI50: 0.00569 µM (active)
ACHN
  GI50: 0.00199 µM (active)
EKVX
  GI50: 0.000232 µM (active)
OVCAR-8
  GI50: 0.00181 µM (active)
IGROV-1
  GI50: 0.000147 µM (active)
KM12
  GI50: 0.000371 µM (active)

## CNC(=S)Nc1ccc(OC)c2ccccc12
TK-10
  GI50: > 10 µM (inactive)
RPMI-8226
  GI50: > 10 µM (inactive)
SF-295
  GI50: 2.04 µM (inactive)
U-251
  GI50: > 10 µM (inactive)
OVCAR-5
  GI50: > 10 µM (inactive)
SF-539
  GI50: > 10 µM (inactive)
A549
  GI50: > 10 µM (inactive)
SK-OV-3
  GI50: > 10 µM (inactive)
CAKI-1
  GI50: > 10 µM (inactive)
HCC 2998
  GI50: > 10 µM (inactive)
SK-MEL-5
  GI50: > 10 µM (inactive)
HL-60
  GI50: > 10 µM (inactive)
786-0
  GI50: > 10 µM (inactive)
HOP-62
  GI50: > 10 µM (inactive)
SNB-19
  GI50: > 10 µM (inactive)
ACHN
  GI50: > 10 µM (inactive)
OVCAR-8
  GI50: > 10 µM (inactive)
IGROV-1
  GI50: > 10 µM (inactive)
KM12
  GI50: > 10 µM (inactive)

## CC1CCc2c(sc3ncnc(N/N=C/c4ccc(Cl)c(Cl)c4)c23)C1 (configuration not stated)
TK-10
  GI50: 23.7 µM (inactive)
RPMI-8226
  GI50: 13.2 µM (inactive)
SF-295
  GI50: 11.4 µM (inactive)
U-251
  GI50: 5.2 µM (inactive)
OVCAR-5
  GI50: 32.7 µM (inactive)
SF-539
  GI50: 21.7 µM (inactive)
A549
  GI50: 4.13 µM (inactive)
SK-OV-3
  GI50: 25.2 µM (inactive)
CAKI-1
  GI50: 26.2 µM (inactive)
HCC 2998
  GI50: 23.6 µM (inactive)
SK-MEL-5
  GI50: 16.7 µM (inactive)
HL-60
  GI50: 22.2 µM (inactive)
786-0
  GI50: 15.6 µM (inactive)
HOP-62
  GI50: 25.2 µM (inactive)
SNB-19
  GI50: 17.5 µM (inactive)
ACHN
  GI50: 5.38 µM (inactive)
EKVX
  GI50: 25 µM (inactive)
OVCAR-8
  GI50: 17.9 µM (inactive)
IGROV-1
  GI50: 37.2 µM (inactive)

## C/C(Cl)=N/OC(=O)Nc1ccc(S(N)(=O)=O)c(C)c1
TK-10
  GI50: 5.58 µM (inactive)
RPMI-8226
  GI50: 1.95 µM (inactive)
SF-295
  GI50: 21 µM (inactive)
U-251
  GI50: 18.5 µM (inactive)
OVCAR-5
  GI50: 18.3 µM (inactive)
A549
  GI50: 17.5 µM (inactive)
SK-OV-3
  GI50: > 43.5 µM (inactive)
CAKI-1
  GI50: 1.83 µM (inactive)
HCC 2998
  GI50: 18.4 µM (inactive)
SK-MEL-5
  GI50: 12.9 µM (inactive)
HL-60
  GI50: 1.42 µM (inactive)
786-0
  GI50: 2.03 µM (inactive)
HOP-62
  GI50: 19.9 µM (inactive)
SNB-19
  GI50: 18.1 µM (inactive)
ACHN
  GI50: 2.15 µM (inactive)
EKVX
  GI50: 5.75 µM (inactive)
OVCAR-8
  GI50: 24.7 µM (inactive)
IGROV-1
  GI50: 15.4 µM (inactive)
KM12
  GI50: 18.6 µM (inactive)

## CO[C@]12CCC(=O)N1C=Cc1c2[nH]c2ccccc12
TK-10
  GI50: > 100 µM (inactive)
RPMI-8226
  GI50: > 100 µM (inactive)
SF-295
  GI50: > 100 µM (inactive)
OVCAR-5
  GI50: > 100 µM (inactive)
SF-539
  GI50: > 100 µM (inactive)
A549
  GI50: > 100 µM (inactive)
CAKI-1
  GI50: > 100 µM (inactive)
HCC 2998
  GI50: > 100 µM (inactive)
SK-MEL-5
  GI50: > 100 µM (inactive)
HL-60
  GI50: > 100 µM (inactive)
786-0
  GI50: > 100 µM (inactive)
HOP-62
  GI50: > 100 µM (inactive)
SNB-19
  GI50: > 100 µM (inactive)
ACHN
  GI50: > 100 µM (inactive)
EKVX
  GI50: > 100 µM (inactive)
OVCAR-8
  GI50: > 100 µM (inactive)
IGROV-1
  GI50: > 100 µM (inactive)

## COC(=O)[C@H](Cc1c[nH]c2ccccc12)NC(=O)OCC1OC(n2cc(C)c(=O)[nH]c2=O)CC1N=[N+]=[N-] (some centres not stated)
TK-10
  GI50: > 100 µM (inactive)
RPMI-8226
  GI50: > 100 µM (inactive)
SF-295
  GI50: > 100 µM (inactive)
U-251
  GI50: > 100 µM (inactive)
OVCAR-5
  GI50: > 100 µM (inactive)
A549
  GI50: > 100 µM (inactive)
SK-OV-3
  GI50: > 100 µM (inactive)
CAKI-1
  GI50: > 100 µM (inactive)
HCC 2998
  GI50: > 100 µM (inactive)
SK-MEL-5
  GI50: 31.8 µM (inactive)
HL-60
  GI50: > 100 µM (inactive)
786-0
  GI50: > 100 µM (inactive)
HOP-62
  GI50: > 100 µM (inactive)
SNB-19
  GI50: > 100 µM (inactive)
ACHN
  GI50: > 100 µM (inactive)
EKVX
  GI50: > 100 µM (inactive)
OVCAR-8
  GI50: > 100 µM (inactive)
IGROV-1
  GI50: > 100 µM (inactive)
KM12
  GI50: > 100 µM (inactive)

## CCCCCCCCCCCC/C=C\CC[C@@H](O)[C@H](O)CC[C@H](O)[C@@H]1CC[C@@H](CCCCCCCC2=C[C@H](C)OC2=O)O1 [GIGANTRIONENIN]
TK-10
  GI50: 2.17 µM (inactive)
RPMI-8226
  GI50: 2.65 µM (inactive)
SF-295
  GI50: 1.93 µM (inactive)
U-251
  GI50: 3.08 µM (inactive)
OVCAR-5
  GI50: 18.5 µM (inactive)
SF-539
  GI50: > 10 µM (inactive)
A549
  GI50: 1.73 µM (inactive)
CAKI-1
  GI50: 15.8 µM (inactive)
HCC 2998
  GI50: 17.3 µM (inactive)
SK-MEL-5
  GI50: 1.26 µM (inactive)
HL-60
  GI50: 2.17 µM (inactive)
786-0
  GI50: 6.21 µM (inactive)
HOP-62
  GI50: 4.1 µM (inactive)
SNB-19
  GI50: 1.83 µM (inactive)
ACHN
  GI50: 1.17 µM (inactive)
EKVX
  GI50: 2.97 µM (inactive)
OVCAR-8
  GI50: 2.64 µM (inactive)
IGROV-1
  GI50: 3.18 µM (inactive)
KM12
  GI50: 3.92 µM (inactive)
